Results taken from patent US20200002303A1, “C-GLYCOSIDE COMPOUNDS USEFUL FOR TREATING DISEASE” (Fimbrion Therapeutics, Inc., priority 2016, published 2020).

Experiments:
FimHL = target: T1, FimHL (Escherichia coli, UniProt P08191); experiment: Differential scanning fluorimetry (DSF) with purified FimHL; type: binding; details: FimHL 10 μM with mannoside 100 μM, SYPRO Orange, HEPES pH 7.5; Tm from Boltzmann fit
T1 construct: Purified FimHL (10 μM) in the absence or presence of mannoside (100 μM)
Protocol: Purified FimHL (10 μM) in the absence or presence of mannoside (100 μM) was combined with 5×SYPRO Orange in a 50 μl reaction mixture buffered in 20 mM HEPES pH 7.5, 150 mM NaCl (HBS) and 0.4% DMSO. Binding equilibria were established by allowing the reaction mixtures to incubate at 23° C. for 30 min. These reaction mixtures were then placed in 96-well clear-bottom PCR plates and subjected to a melt curve from 20-90° C. in 0.5° C. increments of 15 seconds, each followed by a fluorescence read of the “HEX” channel in a Bio-Rad CFX96 thermocycler (Bio-Rad, Hercules, Calif.). Melt curves were fitted to the Boltzmann equation (y=A2+(A1−A2)/(1+exp((x−xo)/dx)) where xo is the Tm) to determine the melting temperature (Tm) using GraphPad Prism 6 (San Diego Calif.). Melting temperatures are represented as the mean and standard error of two biological replicates, each of which consisted of three technical replicates. Compounds not listed were not tested.

FimH = target: T2, FimH (Escherichia coli, UniProt Q1R2J4); type: cell-based; details: concentration reducing bacterial agglutination of guinea pig red blood cells by greater than 90%; UTI89 bacteria
T2 construct: performed with UTI89 bacteria and guinea pig red blood cells; endogenous in cells; host or cells: UTI89 bacteria (whole cells, type 1 piliated)
Protocol: The hemagglutination inhibition (HAI) assay was performed with UTI89 bacteria and guinea pig red blood cells, as previously described (S. J. Hultgren, W. R. Schwan, A. J. Schaeffer, J. L. Duncan Infect. Immun. 1986, 54, 613-620).

UTI89 bacteria = experiment: Biofilm inhibition assay with UTI89 bacteria; type: cell-based; details: read-out: Biofilm prevention IC50
Protocol: The biofilm inhibition assay was performed with UTI89 bacteria as previously described (L. Cegelski, J. S. Pinkner, N. D. Hammer, C. K. Cusumano, C. S. Hung, E. Chorell, V. Aberg, J. N. Walker, P. C. Seed, F. Almqvist, M. R. Chapman, S. J. Hultgren Nature Chem. Biol. 2009, 5, 913-919). Compounds not listed were not tested.

Compound	DSF Melting Temp (FimHL)	HAI titer EC>90 (FimH)	IC50 (UTI89 bacteria)
Cc1cc(-c2ccc3ccnc(N)c3c2)ccc1[C@@H](O)[C@H]1O[C@H](CO)[C@@H](O)[C@H](O)[C@@H]1O [Example 3, (2R,3S,4S,5S,6R)-2-((R)-(4-(1-aminoisoquinolin-7-yl)-2-methylphenyl)(hydroxy)methyl)-6-(hydroxymethyl)tetrahydro-2H-pyran-3,4,5-triol]	77.7 °C	0.006 µM	40 nM
Cc1cc(-c2ccc3cc[nH]c(=O)c3c2)ccc1[C@@H](O)[C@H]1O[C@H](CO)[C@@H](O)[C@H](O)[C@@H]1O [Example 2, 7-(4-((R)-hydroxy((2R,3S,4S,5S,6R)-3,4,5-trihydroxy-6-(hydroxymethyl)tetrahydro-2H-pyran-2-yl)methyl)-3-methylphenyl)isoquinolin-1 (2H)-one]	77.5 °C	0.006 µM	30 nM
Cc1cc(-c2cccc3cnccc23)ccc1[C@@H](O)[C@H]1O[C@H](CO)[C@@H](O)[C@H](O)[C@@H]1O [Example 1, (2R,3S,4S,5S,6R)-2-((R)-hydroxy(4-(isoquinolin-5-yl)-2-methylphenyl)methyl)-6-(hydroxymethyl)tetrahydro-2H-pyran-3,4,5-triol]	74.6 °C	0.125 µM	600 nM
CNC(=O)c1cc(-c2ccc([C@@H](O)[C@H]3O[C@H](CO)[C@@H](O)[C@H](O)[C@@H]3O)c(C)c2)ccc1C#N [Example 43, 4-Cyano-4′-((R)-hydroxy ((2R,3S,4S,5S,6R)-3,4,5-trihydroxy-6-(hydroxymethyl)-tetrahydro-2H-pyran-2-yl)methyl)-N,5′-dimethylbiphenyl-3-carboxamide]		0.006 µM	
Cc1cc(-c2ccc3ncn(C)c3c2)ccc1[C@@H](O)[C@H]1O[C@H](CO)[C@@H](O)[C@H](O)[C@@H]1O [Example 16, (2R,3S,4S,5S,6R)-2-((R)-Hydroxy (2-methyl-4-(3-methyl-3H-benzo[d]imidazol-5-yl)phenyl)methyl)-6-(hydroxymethyl)-tetrahydro-2H-pyran-3,4,5-triol]		0.042 µM	
Cc1cc(-c2ccc3cnccc3c2)ccc1[C@@H](O)[C@H]1O[C@H](CO)[C@@H](O)[C@H](O)[C@@H]1O [Example 10, (2R,3S,4S,5S,6R)-2-((R)-Hydroxy (4-(isoquinolin-6-yl)-2-methylphenyl)methyl)-6-(hydroxymethyl)-tetrahydro-2H-pyran-3,4,5-triol]		0.052 µM	
CNC(=O)c1cccc(-c2ccc([C@@H](N=[N+]=[N-])[C@H]3O[C@H](CO)[C@@H](O)[C@H](O)[C@@H]3O)c(C)c2)c1 [Example 44, 4′-((R)-azido((2R,3S,4R,5S,6R)-3,4,5-trihydroxy-6-(hydroxymethyl)tetrahydro-2H-pyran-2-yl)methyl)-N,3′-dimethylbiphenyl-3-carboxamide]		0.062 µM	
CNC(=O)c1cccc(-c2ccc([C@H](O)[C@H]3OC(CO)[C@@H](O)[C@H](O)C3O)c(C(F)(F)F)c2)c1 (single isomer, unassigned) [Example 40]		5 µM	
Cc1cc(-c2ccc3c(c2)C(=O)N(C(C)C)CC3)ccc1[C@@H](O)[C@H]1O[C@H](CO)[C@@H](O)[C@H](O)[C@@H]1O [Example 32, 7-(4-((R)-Hydroxy ((2R,3S,4S,5S,6R)-3,4,5-trihydroxy-6-(hydroxymethyl)-tetrahydro-2H-pyran-2-yl)methyl)-3-methylphenyl)-2-isopropyl-3,4-dihydroisoquinolin-1 (2H)-one]		0.006 µM	
CNC(=O)c1cc(C#N)cc(-c2ccc([C@@H](O)[C@H]3O[C@H](CO)[C@@H](O)[C@H](O)[C@@H]3O)c(C)c2)c1 [Example 42, 5-Cyano-4′-((R)-hydroxy ((2R,3S,4S,5S,6R)-3,4,5-trihydroxy-6-(hydroxymethyl)-tetrahydro-2H-pyran-2-yl)methyl)-N,5′-dimethylbiphenyl-3-carboxamide]		0.006 µM	
Cc1cc(-c2cccc3c2CNC3=O)ccc1[C@@H](O)[C@H]1O[C@H](CO)[C@@H](O)[C@H](O)[C@@H]1O [Example 13, 4-(4-((R)-Hydroxy ((2R,3S,4S,5S,6R)-3,4,5-trihydroxy-6-(hydroxymethyl)-tetrahydro-2H-pyran-2-yl)methyl)-3-methylphenyl)isoindolin-1-one]		0.083 µM	
Cc1cc(-c2ccc3c(c2)C(=O)NCC3)ccc1[C@@H](O)[C@H]1O[C@H](CO)[C@@H](O)[C@H](O)[C@@H]1O [Example 4, 7-(4-((R)-hydroxy((2R,3S,4S,5S,6R)-3,4,5-trihydroxy-6-(hydroxymethyl)tetrahydro-2H-pyran-2-yl)methyl)-3-methylphenyl)-3,4-dihydroisoquinolin-1 (2H)-one]	76.06 °C	0.008 µM	40 nM
Cc1cc(-c2cn3ccccc3n2)ccc1[C@@H](O)[C@H]1O[C@H](CO)[C@@H](O)[C@H](O)[C@@H]1O [Example 36, (2R,3S,4S,5S,6R)-2-((R)-Hydroxy (4-(imidazo[1,2-a]pyridin-2-yl)-2-methylphenyl)methyl)-6-(hydroxymethyl)-tetrahydro-2H-pyran-3,4,5-triol]		0.019 µM	
